For one test, the target named is TRKB (Mus musculus, UniProt P15209). In words: Cell-free ligand binding assay on immobilised TRKB from HEK293T lysates. As to conditions: for displacement of biotinylated FLX from TRKB: biotinylated FLX 1 μM. Set-up: wild-type GFP-tagged full length TRKB or the GFP-tagged Y433F TRKB mutant; host or cells: HEK293T.
For a further test, the system named is GFP-TRKB.Y433F. In words: FRAP of GFP-TRKB.Y433F in dendritic spines of hippocampal neurons. It is filed as cell-based, rat. As to conditions: BDNF 20 ng/mL, FLX 1 μM, KET 10 μM; 15 min. Here is the method: For the fluorescence recovery after photobleaching (FRAP) experiments, E18 rat embryo hippocampal cells were plated onto glass coverslips coated with poly-L-lysine (Sigma-Aldrich) in 4-well cell culture plates at a density of 200.000 cells/well. The cultures were incubated at +37°C in serum-free Neurobasal medium (supplemented with 2% B27, 1% L-glutamine and 1% ampicillin) for approximately 2 weeks (DIV 14-16), renewing half of the growth media weekly. Then, they were transfected with Lipofectamine 2000 (Invitrogen) in order to overexpress GFP-tagged TRKB constructs (TRKB.WT or TRKB.Y433F). The cultures were incubated with the transfection mix (per well: 50ul neurobasal medium, 1ul Lipofectamine 2000, 1ug plasmid DNA) in serum-free media for 1.5 hours, followed by 3x medium washes and returned to the original growth medium after that. The cells were left at +37°C o/n to overexpress the constructs ([Koskinen et al., 2012]). Next day, FRAP was performed with a confocal microscope (Zeiss LSM 710, Carl Zeiss AG) adapted for live cell imaging with a chamber set at +37°C and 5%CO2 (Zeiss Temp Module system, Carl Zeiss AG). Coverslips with the cultured hippocampal neurons were carefully transferred to 35mm Petri dishes with warm HBSS medium without phenol red or serum to avoid sources of background fluorescence. After a 10 minutes adaptation period in the microscope chamber to avoid focus drift caused by temperature fluctuations of the stage and objective, dendritic shafts or spines (spine head diameter = ∼1um) were localized with a 63x/0.90 NA dipping water objective. Picture format was 512x512 pixels. The nominal speed to capture images was set to 9 (pixel dwell 3.15 μseconds, taking approximately 0.5 s to finish a scan), and the pinhole aperture was set to completely open to obtain a strong fluorescent signal ([Koskinen et al., 2012]; [Zheng et al., 2011]). Once a region of interest (ROI) was selected with a circle that contained the whole spine, it was bleached to establish the FRAP baseline. […]

TRKB, sequence (P15209 32-821): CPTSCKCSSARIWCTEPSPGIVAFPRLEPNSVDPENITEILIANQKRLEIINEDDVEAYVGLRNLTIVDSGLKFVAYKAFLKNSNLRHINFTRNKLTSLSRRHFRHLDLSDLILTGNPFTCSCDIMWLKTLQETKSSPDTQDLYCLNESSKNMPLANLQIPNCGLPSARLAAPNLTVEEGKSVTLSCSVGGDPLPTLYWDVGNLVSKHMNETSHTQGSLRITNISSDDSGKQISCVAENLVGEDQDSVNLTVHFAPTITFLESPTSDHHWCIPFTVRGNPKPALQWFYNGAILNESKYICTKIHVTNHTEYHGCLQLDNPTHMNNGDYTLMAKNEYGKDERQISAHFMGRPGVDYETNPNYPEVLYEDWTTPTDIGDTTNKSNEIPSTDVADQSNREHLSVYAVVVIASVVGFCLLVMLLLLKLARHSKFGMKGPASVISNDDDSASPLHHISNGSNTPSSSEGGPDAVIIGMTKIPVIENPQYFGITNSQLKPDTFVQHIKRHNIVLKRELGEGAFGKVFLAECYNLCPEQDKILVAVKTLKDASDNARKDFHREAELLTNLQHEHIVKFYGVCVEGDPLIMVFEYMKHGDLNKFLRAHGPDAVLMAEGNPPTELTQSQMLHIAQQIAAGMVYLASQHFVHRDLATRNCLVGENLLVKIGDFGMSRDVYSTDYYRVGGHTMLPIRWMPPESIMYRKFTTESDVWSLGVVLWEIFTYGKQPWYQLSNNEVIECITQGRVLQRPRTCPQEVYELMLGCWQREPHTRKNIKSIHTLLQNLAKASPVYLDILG

As for `CC(C)CCC[C@@H](C)[C@H]1CC[C@H]2[C@@H]3CC=C4C[C@@H](O)CC[C@]4(C)[C@H]3CC[C@]12C` [CHOL, cholesterol], the “effect on interaction of biotinylated FLX and R,R-HNK with TRKB” value on TRKB was “increased the interaction of these compounds with TRKB”.

With `CNCCC(Oc1ccc(C(F)(F)F)cc1)c1ccccc1` (centres unmarked) [FLX, fluoxetine], in the test with GFP-TRKB.Y433F, the “fluorescence of GFP-TRKB.Y433F in dendritic spines after bleaching” value (from here on “fluorescence of GFP-TRKB.Y433F”) is listed as “Neither BDNF, FLX, nor KET increased the fluorescence”.

With `CNC1(c2ccccc2Cl)CCCCC1=O` (centres unmarked) [KET, ketamine], at TRKB, the Ki was found to be 12.3 µM and the “displacement of biotinylated FLX from TRKB” value is listed as “readily displaced”. Moreover, the “fluorescence of GFP-TRKB.Y433F” value in the test on GFP-TRKB.Y433F is given as “Neither BDNF, FLX, nor KET increased the fluorescence”.

B1: BDNF: brain-derived neurotrophic factor, TRKB ligand (protein, UniProt P23560 19-247, looked up)
Neurotrophic factor BDNF …: APMKEANIRGQGGLAYPGVRTHGTLESVNGPKAGSRGLTSLADTFEHVIEELLDEDQKVRPNEENNKDADLYTSRVMLSSQVPLEPPLLFLLEEYKNYLDAANMSMRVRRHSDPARRGELSVCDSISEWVTAADKKTAVDMSGGTVTVLEKVPVSKGQLKQYFYETKCNPMGYTKEGCRGIDKRHWNSQCRTTQSYVRALTMDSKKRIGWRFIRIDTSCVCTLTIKRGR
For B1, the Kd with TRKB (TRKB.wt, read-out: binding affinity of BDNF) was 3.1 pM. For the same molecule, the “displacement of biotinylated FLX from TRKB” value with TRKB was “failed to displace”. The “fluorescence of GFP-TRKB.Y433F” value in the test on GFP-TRKB.Y433F is reported as “Neither BDNF, FLX, nor KET increased the fluorescence”.

One may read the Ki as the dissociation constant of the complex between target and ligand, obtained from inhibition or displacement. A low value points to higher affinity.

Source of the values: paper PMC7938888, “Antidepressant drugs act by directly binding to TRKB neurotrophin receptors” (Cell, 2021).
